PMC7522027 (Disease Models & Mechanisms, 2020)

How the values were obtained:
caALK2 = target: T1, caALK2 (Homo sapiens, UniProt Q04771, Q207D); experiment: caALK2-induced SMAD1/5 phosphorylation in HEK 293T cells; type: cell-based; conditions: cercosporamide 1-10 µM, LDN193189 200 nM
T1 construct: expressed in transfected cells; host or cells: HEK 293T
T1 sequence (Q04771 21-509 Q207D): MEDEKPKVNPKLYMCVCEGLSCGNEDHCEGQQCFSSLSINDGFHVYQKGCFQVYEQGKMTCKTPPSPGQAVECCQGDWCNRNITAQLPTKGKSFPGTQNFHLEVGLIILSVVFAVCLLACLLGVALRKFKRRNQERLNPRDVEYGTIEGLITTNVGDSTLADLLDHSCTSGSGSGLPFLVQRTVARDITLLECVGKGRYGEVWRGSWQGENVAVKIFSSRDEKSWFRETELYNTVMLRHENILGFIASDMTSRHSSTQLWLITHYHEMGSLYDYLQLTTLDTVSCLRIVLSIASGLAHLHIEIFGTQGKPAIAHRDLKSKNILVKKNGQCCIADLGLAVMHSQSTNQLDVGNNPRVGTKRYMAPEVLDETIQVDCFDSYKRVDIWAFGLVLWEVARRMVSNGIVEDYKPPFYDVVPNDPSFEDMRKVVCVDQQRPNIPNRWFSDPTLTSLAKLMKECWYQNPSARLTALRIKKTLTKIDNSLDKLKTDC
Source text: (§1) HepG2 or HEK 293T cells were lysed in Laemmli sample buffer. Proteins were separated by sodium dodecyl sulfate polyacrylamide gel electrophoresis (SDS-PAGE) and transferred onto […] polyvinylidene difluoride (PVDF) membrane (IPVH00010, Merck Millipore). Membranes were blocked using 5% non-fat dry milk in Tris-buffered saline with 0.1% Tween 20 (655204, Merck Millipore) and probed with the respective primary and secondary antibodies. The signal was detected using Clarity™ Western ECL Substrate (1705060, Bio-Rad) and ChemiDoc Imaging System (17001402, Bio-Rad). The antibodies used for immunoblotting were raised against the following proteins: phospho-SMAD1/5/8 ([Persson et al., 1998]; 1:1000), SMAD1 (Cell Signaling Technology, #6944; 1:1000), GAPDH (Merck Millipore, #G8795; 1:5000) and hemagglutinin (HA; Roche, #12CA5; 1:1000).
(§2) For experiments with the caALK type I receptor constructs, HEK 293T cells were seeded in 24-well plates at ∼90% confluency and transfected with the DNA expression constructs in the presence of PEI. Thirty hours after transfection, the cells were added to serum-starved medium and treated with compounds for 16 h (overnight). Subsequently, the cells were washed with PBS and lysed in Laemmli sample buffer. […]

[1] = test system: BMP2-induced SMAD1/5 phosphorylation; experiment: BMP2-induced SMAD1/5 phosphorylation in HepG2 cells (immunoblot); type: cell-based, human; conditions: HepG2, BMP2 50 ng/ml; high concentrations (range 100 nM to 10 µM)
Method: For BMP stimulation, the HepG2 cells (∼50% confluency) were starved on serum-free medium for 6 h. Subsequently, prior to the addition of BMP ligands, the cells were treated with compound for 30 min. Next, the cells were stimulated with BMP2 (50 ng/ml) or BMP6 (50 ng/ml) for 45 min. The cells were then washed with PBS and lysed in Laemmli sample buffer for western blot analysis.
as §1

caALK3 = target: T2, caALK3 (Homo sapiens, UniProt P36894, Q233D); experiment: caALK3-induced SMAD1/5 phosphorylation in HEK 293T cells; type: cell-based; conditions: cercosporamide 1-10 µM, LDN193189 200 nM
T2 construct: expressed in transfected cells; host or cells: HEK 293T
T2 sequence (P36894 24-532 Q233D): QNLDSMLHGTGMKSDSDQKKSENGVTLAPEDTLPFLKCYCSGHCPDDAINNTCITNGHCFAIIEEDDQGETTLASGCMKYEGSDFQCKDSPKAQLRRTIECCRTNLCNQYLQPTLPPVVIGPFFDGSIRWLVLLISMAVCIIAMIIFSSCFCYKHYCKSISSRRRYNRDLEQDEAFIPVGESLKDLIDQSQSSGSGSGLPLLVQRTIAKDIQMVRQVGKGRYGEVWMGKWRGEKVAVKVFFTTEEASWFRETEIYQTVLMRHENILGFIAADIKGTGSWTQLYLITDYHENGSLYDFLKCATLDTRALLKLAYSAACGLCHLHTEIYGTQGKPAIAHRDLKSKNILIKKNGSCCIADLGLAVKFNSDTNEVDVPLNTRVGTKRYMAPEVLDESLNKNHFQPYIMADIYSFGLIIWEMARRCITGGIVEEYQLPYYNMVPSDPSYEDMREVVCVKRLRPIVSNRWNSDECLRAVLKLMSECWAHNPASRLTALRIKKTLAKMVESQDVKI
Source text: as §1, §2

zebrafish embryos = experiment: zebrafish embryo assay (morphological developmental defects at 48 hpf); type: in vivo, zebrafish (Danio rerio)
Method: Zebrafish eggs obtained from family crosses of Tuebingen long fin zebrafish lines were used to assess the biological activity of all samples. The eggs were washed with fresh E3 medium and subsequently divided over 24-well plates, with ten embryos per well in 1000 µl E3 medium. Samples were added to the wells at various times as mentioned in the figures and legends. At 48 hpf, the zebrafish embryos were inspected for morphological developmental defects. Embryos displaying morphological defects were imaged using a Leica MZFLIII microscope equipped with a Leica DFC320 camera or Leica M165 FC microscope equipped with a Leica DMC5400 camera.

With CC(=O)C1=C(O)C=C2Oc3c(C(N)=O)c(O)cc(O)c3[C@]2(C)C1=O [cercosporamide, Cercosporamide] the “effect on caALK2-induced SMAD1/5 phosphorylation” value (caALK2) was “inhibited SMAD1/5 phosphorylation”, the “effect on BMP2-induced SMAD1/5 phosphorylation” value [1] was “capable of blocking SMAD1/5 phosphorylation” and the “effect on caALK3-induced SMAD1/5 phosphorylation” value (caALK3) was “inhibited SMAD1/5 phosphorylation”. For the same molecule, the “phenotype, combination treatment” value (zebrafish embryos; 50 nM cercosporamide in combination with 5 µM LDN-193189, from 7 hpf onwards) was “partial loss of the ventral fin”, the “developmental defects, single treatment” value (zebrafish embryos; 50 nM, from 7 hpf onwards) was “did not induce detectable developmental defects” and the “phenotype at 48 hpf” value (zebrafish embryos; 100 nM, treatment from 7 hpf) was “abolished the effect”. The “phenotype at 48 hpf” value (zebrafish embryos; 200 nM, treatment started at 2 hpf) was “severely truncated phenotype”, the “phenotype at 48 hpf” value (zebrafish embryos; 200 nM, treatment started at 8 hpf) was “mild phenotype” and the “phenotype at 48 hpf” value (zebrafish embryos; 1.5 µM, treatment from 7 hpf) was “severely truncated phenotype”. The “phenotype at 48 hpf” value (zebrafish embryos; 3 µM, treatment from 7 hpf) was “severely truncated phenotype” and the “lethal concentration in zebrafish embryos” value (zebrafish embryos; treatment from 7 hpf, continuous until 48 hpf) was “above 3 µM”.
